Laboratory results published in patent US7888319B2, “Compositions and methods for promoting wound healing and tissue regeneration” (MUSC Foundation for Research Development, priority 2004, dated 2011).

Test system: WB-F344 cells
Experiment: Scratch injury of WB-F344 cell lines stably expressing ACT-peptide-encoding polynucleotide
Format: cell-based, rat
Conditions: stable expression with GFP, 24 hours after scratch, vs GFP-only cell line
Description: WB-F344 cells are a transformed rat epithelial cell line derived by treatment of isolated rat liver cells with a cancer-causing agent (Tsao et al., 1984; Hayashi et al., 1997; Hayashi et al., 1998; Hayashi et al., 2001). WB-F344 cells were transfected with a cDNA expression plasmid construct and selected under antibiotic using standard protocols to generate cell lines that stably expressed an ACT-peptide-encoding-polynucleotide (SEQ ID NO:6) operably linked to a promoter sequence or a green fluorescent protein (GFP) polynucleotide operably linked to a promoter sequence as a control. The polynucleotide encoding the ACT peptide also encoded GFP. As such, expression of the ACT peptide could be assayed by standard GFP fluorescence optics on a light microscope. (a) and (b) show high magnification images of GFP fluorescence in WB-F344 cell lines expressing GFP plus the carboxy terminus ACT peptide sequence (a) or GFP alone (b). Near confluent monolayers of the WB-F344 cell lines were “scratch injured” and allowed to “heal” for 24 hours. […]
WB-F344 cells are a transformed rat epithelial cell line derived by treatment of isolated rat liver cells with a cancer-causing agent (Tsao et al., 1984; Hayashi et al., 1997; Hayashi et al., 1998; Hayashi et al., 2001). […] As such, expression of the ACT peptide could be assayed by standard GFP fluorescence optics on a light microscope. […]

aga cct cgg cct gat gac ctg gag att (DNA AGACCTCGGCCTGATGACCTGGAGATT; expressed or natural sequence) [ACT-peptide-encoding-polynucleotide, polynucleotide encoding ACT peptide plus GFP, operably linked to a promoter, stably expressed in WB-F344 cells]
repopulation of the scratch injury: inhibited repopulation of the scratch injury
